The results in this text go back to article PMC4553520, “Laboratory and Simulated Field Bioassays to Evaluate Larvicidal Activity of Pinus densiflora Hydrodistillate, Its Constituents and Structurally Related Compounds against Aedes albopictus, Aedes aegypti and Culex pipiens pallens in Relation to Their Inhibitory Effects on Acetylcholinesterase Activity” (Insects, 2013).

In brackets after ≈: the same amount, converted by molar mass.

Data set [1] has as its system early third-instar larvae of Ae. albopictus. Description: Direct-contact mortality bioassay, Ae. albopictus larvae. The settings on record: for LC50 (Ae. albopictus), mg/L (95% CL): early third-instar larvae, 24 h exposure, direct contact; for LC50: Aedes albopictus, 24 h, read-out: LC50 (Ae. albopictus), mg/L (95% CL). As to the method:
(§1) Direct-contact mortality bioassays were employed to evaluate the toxicity of all compounds, using early third-instar larvae of each mosquito species. Each compound was dissolved in methanol, and then further diluted in distilled water containing Triton X-100 (20 µL/L). Groups of 20 mosquito larvae of each species were put into separate paper cups (270 mL), each containing different compound solutions (250 mL). The toxicity of each compound was determined by repeating this experimental procedure with different concentrations, ranging from 5 to 200 mg/L. Temephos and fenthion served as standard references and were similarly formulated as well. Controls contained only methanol-Triton X-100 carrier solution in distilled water.
(§2) Both treated and control larvae were kept under the same conditions as those used for colony maintenance. […] Due to certain constraints arising from the number of available larvae, all necessary bioassays could not be conducted simultaneously and thus, treatments were conducted over a period of time, with a separate control treatment included each time. Freshly prepared compound solutions were used for each round of bioassays. All bioassays were repeated three times.
(§3) Concentration-mortality data were subjected to probit analysis using SAS [20]. […] Furthermore, for the compounds tested in AChE inhibition assays, a correlation analysis between their LC50 values and IC50 values was conducted using SAS [20].

Data set [2] has as its system early third-instar larvae of Ae. aegypti. Description: Direct-contact mortality bioassay, Ae. aegypti larvae. Conditions: for LC50 (Ae. aegypti), mg/L (95% CL): early third-instar larvae, 24 h exposure, direct contact; for LC50: Aedes aegypti, 24 h, read-out: LC50 (Ae. aegypti), mg/L (95% CL). As to the method: as §1, §2, §3
For data set [3], the system named is early third-instar larvae of Cx. p. pallens. Kind of data set: Direct-contact mortality bioassay, laboratory-reared Cx. p. pallens larvae. The settings on record: for LC50 (Cx p. pallens), mg/L (95% CL): laboratory-reared early third-instar larvae, 24 h exposure, direct contact; for LC50: Culex pipiens, 24 h, read-out: LC50 (Cx p. pallens), mg/L (95% CL). As to the method: as §1, §2, §3

Data set [4] concerns the target acetylcholinesterase (AChE) extracted from the heads of larval Ae. albopictus (Aedes albopictus, UniProt Q2PGF2). Description: AChE inhibition assay, Ae. albopictus. In kind it is biochemical. Conditions: in vitro. As to the method: (§4) For each species, larvae frozen at −20 °C were decapitated and 100 heads were homogenized in 5 mL of ice-cold 0.1 M sodium phosphate buffer (pH 8.0), using a Teflon glass tissue homogenizer. The homogenate was centrifuged at 10,000 × g at 4 °C for 20 min. The supernatant was filtered by a 0.22 µm-Millex-GV filter (Millipore, Cork, Ireland) and was used as the AChE preparation. Protein concentrations were determined by the Bradford dye method using BSA as the standard. A microplate AChE assay was carried out following the method of Moores et al. adapted from Ellman et al.. The reaction mixture consisted of 80 µL of the crude enzyme preparation, 10 µL of 7.5 mM DTNB in phosphate buffer (pH 7.0) and 100 µL of the selected test compounds of various concentrations in 2.5% acetone. The reaction mixture was incubated at 30 °C for 5 min and 10 µL of 6.25 mM ATChI was then added to the mixture. The absorbance was recorded at 414 nm, using a Molecular Devices VersaMax microplate reader (Sunnyvale, CA, USA). All AChE inhibition assays were repeated three times in triplicates.
as §3

Data set [5] has as its target acetylcholinesterase (AChE) extracted from the heads of larval Ae. aegypti (Aedes aegypti, UniProt Q6A2E2). Description: AChE inhibition assay, Ae. aegypti. Conditions: in vitro. In kind it is biochemical. As to the method:
as §4, §3

Data set [6] has as its target acetylcholinesterase (AChE) extracted from the heads of larval Cx. p. pallens (Culex pipiens pallens, UniProt Q86GC8). Description: AChE inhibition assay, Cx. p. pallens. It is filed as biochemical. Conditions: in vitro. As to the method:
as §4, §3

In data set [7] the test system is field-collected larvae of Cx. p. pallens. Kind of data set: Semi-field bioassay, field-collected Cx. p. pallens larvae. The settings on record: for LC50: Culex pipiens, 24 h, read-out: LC50, mg/L, Field-collected; for Resistance ratio: field-collected vs laboratory-reared Cx. p. pallens larvae (LC50 ratio). As to the method:
Larvae of wild mosquitoes were field-collected from irrigated rice fields in Yongin, Korea in early August 2012. A satellite view of the larvae collection site is included in Figure 1 [13].
The buckets were treated with test compounds and covered with nylon mesh screen to prevent other mosquitoes and insects from laying eggs. The buckets were then placed back at the initial collection site and were allowed to stand for 24 h, after which the mortality data were recorded. Temephos and fenthion served as standard references.
as §3

Sequence of acetylcholinesterase (AChE) extracted from the heads of larval Ae. aegypti (Q6A2E2 37-679): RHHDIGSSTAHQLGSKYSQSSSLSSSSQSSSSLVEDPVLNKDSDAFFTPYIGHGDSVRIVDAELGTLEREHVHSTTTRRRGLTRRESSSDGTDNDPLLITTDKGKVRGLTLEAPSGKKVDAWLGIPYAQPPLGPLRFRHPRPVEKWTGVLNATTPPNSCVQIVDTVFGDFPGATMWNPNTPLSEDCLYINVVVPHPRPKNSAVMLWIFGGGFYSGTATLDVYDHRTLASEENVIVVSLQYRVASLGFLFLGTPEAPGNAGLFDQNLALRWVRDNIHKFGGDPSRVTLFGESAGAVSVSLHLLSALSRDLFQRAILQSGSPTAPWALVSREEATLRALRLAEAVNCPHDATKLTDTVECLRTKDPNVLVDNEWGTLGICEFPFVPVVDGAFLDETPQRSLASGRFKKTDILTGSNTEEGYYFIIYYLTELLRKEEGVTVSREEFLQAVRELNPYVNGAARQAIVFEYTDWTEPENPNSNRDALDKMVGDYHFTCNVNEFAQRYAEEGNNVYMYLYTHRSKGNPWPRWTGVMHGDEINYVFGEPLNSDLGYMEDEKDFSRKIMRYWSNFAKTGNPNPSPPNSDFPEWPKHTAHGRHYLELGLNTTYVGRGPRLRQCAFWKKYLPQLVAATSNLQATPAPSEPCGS
Sequence of acetylcholinesterase (AChE) extracted from the heads of larval Cx. p. pallens (Q86GC8 37-702): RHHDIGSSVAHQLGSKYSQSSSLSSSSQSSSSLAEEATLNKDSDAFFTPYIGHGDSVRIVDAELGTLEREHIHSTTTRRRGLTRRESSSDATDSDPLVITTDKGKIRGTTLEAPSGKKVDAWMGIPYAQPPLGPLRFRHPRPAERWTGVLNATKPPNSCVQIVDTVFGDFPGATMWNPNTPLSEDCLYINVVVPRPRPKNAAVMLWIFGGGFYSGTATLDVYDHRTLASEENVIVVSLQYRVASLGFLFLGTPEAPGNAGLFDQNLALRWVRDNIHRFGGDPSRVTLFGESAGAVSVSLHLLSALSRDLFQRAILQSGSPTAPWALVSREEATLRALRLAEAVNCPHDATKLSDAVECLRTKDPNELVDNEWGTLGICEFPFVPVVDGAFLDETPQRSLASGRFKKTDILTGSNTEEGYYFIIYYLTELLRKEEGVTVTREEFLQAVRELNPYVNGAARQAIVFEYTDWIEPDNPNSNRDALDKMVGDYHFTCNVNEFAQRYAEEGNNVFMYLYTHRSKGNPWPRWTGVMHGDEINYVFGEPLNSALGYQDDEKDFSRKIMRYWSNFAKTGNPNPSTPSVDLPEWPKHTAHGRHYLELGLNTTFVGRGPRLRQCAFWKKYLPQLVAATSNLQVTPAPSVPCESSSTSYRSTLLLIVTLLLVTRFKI
Sequence of acetylcholinesterase (AChE) extracted from the heads of larval Ae. albopictus (Q2PGF2 37-680): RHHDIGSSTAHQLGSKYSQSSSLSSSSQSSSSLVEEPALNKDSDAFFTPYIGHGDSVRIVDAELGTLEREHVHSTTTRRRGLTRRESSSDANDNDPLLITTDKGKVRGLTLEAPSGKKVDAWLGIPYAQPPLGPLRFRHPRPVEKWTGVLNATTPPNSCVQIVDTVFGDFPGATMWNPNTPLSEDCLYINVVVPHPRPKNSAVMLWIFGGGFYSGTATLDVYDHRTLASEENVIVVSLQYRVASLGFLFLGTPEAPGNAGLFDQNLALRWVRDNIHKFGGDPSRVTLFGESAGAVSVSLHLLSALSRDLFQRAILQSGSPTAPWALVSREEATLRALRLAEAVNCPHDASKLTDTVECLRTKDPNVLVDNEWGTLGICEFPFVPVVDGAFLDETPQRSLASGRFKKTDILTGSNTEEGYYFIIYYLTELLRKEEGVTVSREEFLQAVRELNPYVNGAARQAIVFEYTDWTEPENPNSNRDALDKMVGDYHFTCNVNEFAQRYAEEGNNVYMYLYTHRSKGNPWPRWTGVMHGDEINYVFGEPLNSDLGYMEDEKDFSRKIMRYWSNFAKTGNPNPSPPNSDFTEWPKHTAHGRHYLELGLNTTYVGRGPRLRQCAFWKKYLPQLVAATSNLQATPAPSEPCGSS

For the compound `C/C1=C\CC/C(C)=C/CC(C)(C)/C=C/C1` [α-humulene], the “LC50 (Ae. albopictus), mg/L (95% CL)” value in data set [1] is greater than 150 mg/L. Besides, the “LC50 (Ae. aegypti), mg/L (95% CL)” value in data set [2] is greater than 150 mg/L. In addition, in data set [3], the “LC50 (Cx p. pallens), mg/L (95% CL)” value is reported as greater than 150 mg/L. Further, the half-inhibitory concentration (IC50) in data set [4] stood at 47.6 mM; in data set [5] it was 58.1 mM; in data set [6], 62.3 mM.
`CC1=CCC(=C(C)C)CC1` [α-terpinolene]: the LC50 turned out to be 13.9 mg/L (≈ 102 µM) in data set [1], 15.3 mg/L (≈ 112 µM) in data set [2], 10.6 mg/L (≈ 78 µM) in data set [3] and 13.9 mg/L (≈ 102 µM) in data set [7]. The Resistance ratio in data set [7] is 1.31.
For the compound `CC1=CCC2C(C1)C2(C)C` (stereo not shown) [δ-3-carene], the LC50 in data set [1] is 9.33 mg/L (≈ 68.5 µM); in data set [2] it was 12.1 mg/L (≈ 88.8 µM); in data set [3], 10.1 mg/L (≈ 74.2 µM); in data set [7], 12.7 mg/L (≈ 93 µM). For the same compound, in data set [7], the Resistance ratio turned out to be 1.25.
On to (−)-myrtenal, for which, in data set [1], the “LC50 (Ae. albopictus), mg/L (95% CL)” value is given as 137.86 (119.15–173.91) mg/L. The “LC50 (Ae. aegypti), mg/L (95% CL)” value in data set [2] was greater than 150 mg/L. In addition, the “LC50 (Cx p. pallens), mg/L (95% CL)” value in data set [3] was 139.61 (122.92–169.77) mg/L. Besides, the IC50 in data set [4] stood at 23.7 mM; in data set [5], 34 mM; in data set [6] it was 31.6 mM.
